Assay [1] addresses Envelope glycoprotein gp160 (Human immunodeficiency virus type 1 group M subtype B (isolate HXB2)(HIV-1)) (UniProt P04578). Nature of the assay: Tested for inhibition of HIV CD4-gp120 interaction in an ELISA based binding assay using recombinant gp120 and soluble CD4 up to a concentration of 350 uM; No inhibition.
Assay [2] has the same target. Nature of the assay: Tested for inhibition of HIV CD4-gp120 interaction in an ELISA based binding assay using recombinant gp120 and soluble CD4 up to a concentration of 550 uM; No inhibition.
The target in assay [3] is Envelope glycoprotein gp160 (Human immunodeficiency virus type 1 group M subtype B (isolate HXB2)(HIV-1), UniProt P04578). Put plainly: Tested for inhibition of HIV gp120-CD4 interaction in an ELISA based binding assay using recombinant CD4-gp120. In general terms: In an ELISA, binding on a coated surface is turned into a signal by an enzyme label.

This passage reports inhibition and IC50 results from ChEMBL document CHEMBL1126407, “-Lactam peptides as potential inhibitors of the HIV gp120-CD4 interaction” (Bioorg Med Chem Lett, 1992).

pIC50: −log10 of the molar value. Activity calls are given as the source filed them. The rule behind the calls is not given here.

For the molecule `CC(C)C[C@H](NC(=O)[C@H](Cc1ccccc1)NC(=O)[C@H]1/C(=C/CO)O[C@@H]2CC(=O)N21)C(=O)OCc1ccccc1`, the inhibition entry in assay [1] was “inactive”.
Consider `COC(=O)[C@H](Cc1ccccc1)NC(=O)[C@H]1/C(=C/CO)O[C@@H]2CC(=O)N21`, for which, in assay [2], the inhibition result was “inactive”.
Consider `COC(=O)[C@H](Cc1ccccc1)NC(=O)[C@@H]1N2C(=O)[C@@H](N)[C@H]2SC1(C)C`, for which the inhibition result in assay [1] was “inactive”.
By pIC50 is commonly meant −log10 of the IC50, conventionally taken in molar units. Take `COC(=O)C(=O)N1CCC[C@@H]1C(=O)N[C@H](Cc1ccccc1)C(=O)OCc1ccccc1`: the pIC50 in assay [3] was 3.60.
